Read-outs that look alike come from different tables or passages of the source. Residues, ends and D or L forms follow the SMILES beside them.
Experiments:
[1] = target: T1, ΔCTD_Reg1 (amino acids 1 to 546 of human Regnase-1) phosphorylation by IKKβ (Homo sapiens, UniProt Q5D1E8); test: Regnase-1 phosphorylation inhibition by compounds (AlphaScreen), IKKβ, CTD-deficient Regnase-1; format: biochemical
T1 construct: made in house; host or cells: Expi293 cells
T1 sequence (Q5D1E8 1-546): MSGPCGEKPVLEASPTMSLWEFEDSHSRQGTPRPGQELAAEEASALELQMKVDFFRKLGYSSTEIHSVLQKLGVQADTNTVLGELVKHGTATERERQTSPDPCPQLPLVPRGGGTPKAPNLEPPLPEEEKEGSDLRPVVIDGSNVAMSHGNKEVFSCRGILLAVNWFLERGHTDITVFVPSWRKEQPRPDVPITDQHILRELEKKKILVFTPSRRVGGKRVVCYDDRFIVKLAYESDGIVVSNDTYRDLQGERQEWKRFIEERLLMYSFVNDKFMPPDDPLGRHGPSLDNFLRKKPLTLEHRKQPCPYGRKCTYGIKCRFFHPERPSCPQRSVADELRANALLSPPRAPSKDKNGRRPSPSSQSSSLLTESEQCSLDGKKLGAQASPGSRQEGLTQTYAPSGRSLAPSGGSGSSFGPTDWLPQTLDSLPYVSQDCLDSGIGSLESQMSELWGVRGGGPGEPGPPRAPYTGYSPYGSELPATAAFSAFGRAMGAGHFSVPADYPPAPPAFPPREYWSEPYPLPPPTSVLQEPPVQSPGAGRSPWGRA
Procedure: Among the full-length human Regnase-1 sequence, the 1st to 546th amino acid sequence was prepared and made into a construct having a FLAG tag on the N-terminal side and a biotin ligase BirA recognition sequence on the C-terminal side (herein, a Regnase-1 lacking the C-terminal domain of Regnase-1 (amino acids 547 to 599 in the case of SEQ ID NO: 2) is referred to as “ΔCTD_Reg1”. “ΔCTD_Reg1” is different from “Regnase-1ΔCTD”, which is a C-terminal domain deletion variant resulting from a frameshift mutation caused by a 1 bp deletion at codon 517, as prepared in Example 13). In addition, the sequence from amino acids 301 to 599 of the full-length human Regnase-1 sequence was designated as C-terminal Regnase-1, and a construct having a FLAG tag on the N-terminal side and a recognition sequence for biotin ligase BirA on the C-terminal side was prepared (Reg1_301-599). The above-mentioned Regnase-1 was expressed in mammalian Expi293 cells, purified with FLAG M2 agarose, and isolated by gel filtration chromatography. When biotinylation was required, methods of nonpatent documents (BMC biotechnology, 2008,8,41; and Protein Science, 1999,8,921-929) were used.
Using Kinase assay buffer III (manufactured by SignalChem) supplemented with 2 mM DTT, 100 μM sodium vanadate, and 2 mM manganese chloride, kinase (IKKβ (manufactured by SignalChem) or TBK1 (manufactured by SignalChem)) and Regnase-1 were reacted in the presence of 10 μM ATP at room temperature for 2 hours to perform a phosphorylation reaction.
Phosphorylated Regnase-1 was detected by the AlphaScreen system. After each of the above-mentioned phosphorylated Regnase-1 antibodies was added and reacted at room temperature for one hour, anti-FLAG AlphaLISA Acceptor Beads (manufactured by PerkinElmer) and Protein A AlphaScreen Donor Beads (manufactured by PerkinElmer) were added, and EnVision (manufactured by PerkinElmer) was used to measure the excited luminescence. As a result, phosphorylated Regnase-1 produced by the phosphorylation reaction by kinase was specifically detected, and signals were confirmed to be enhanced in a manner dependent on Regnase-1 and kinase concentrations (FIG. 24).
After mixing 2 nM of the above-mentioned Regnase-1 and the compound, phosphorylated Regnase-1 produced by the phosphorylation reaction was detected by the AlphaScreen system. As the results, the inhibition rate was calculated from the signals obtained when adding the compound at each concentration, by defining the signal obtained with Regnase-1 alone to be 100% inhibition rate, and the signal obtained when the same amount of solvent (DMSO) is added in place of the compound as 0% inhibition rate. The 50% inhibition concentration (μM) was calculated from the obtained dose response curve (Table 11).

[2] = target: T2, binding between TBK1 and full-length Regnase-1 (FL_Reg1) (Homo sapiens, UniProt Q5D1E8); test: Inhibition of kinase-Regnase-1 binding by the compounds (AlphaScreen), TBK1
T2 construct: made in house; host or cells: Expi293 cells
T2 sequence (Q5D1E8 1-599): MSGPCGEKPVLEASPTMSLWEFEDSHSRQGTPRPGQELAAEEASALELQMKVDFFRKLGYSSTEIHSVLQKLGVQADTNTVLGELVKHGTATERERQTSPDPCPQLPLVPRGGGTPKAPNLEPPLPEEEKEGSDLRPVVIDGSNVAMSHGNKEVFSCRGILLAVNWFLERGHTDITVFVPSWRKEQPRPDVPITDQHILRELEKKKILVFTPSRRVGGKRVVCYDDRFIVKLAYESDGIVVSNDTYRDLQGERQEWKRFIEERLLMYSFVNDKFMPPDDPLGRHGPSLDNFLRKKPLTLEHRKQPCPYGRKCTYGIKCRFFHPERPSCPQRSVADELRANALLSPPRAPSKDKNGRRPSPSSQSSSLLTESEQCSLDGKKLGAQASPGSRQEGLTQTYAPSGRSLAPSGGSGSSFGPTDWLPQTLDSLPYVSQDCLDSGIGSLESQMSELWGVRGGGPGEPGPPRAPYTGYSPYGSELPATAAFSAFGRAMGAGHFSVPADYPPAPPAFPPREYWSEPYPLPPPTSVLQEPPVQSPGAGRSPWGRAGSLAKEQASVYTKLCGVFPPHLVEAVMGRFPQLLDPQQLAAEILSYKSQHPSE
Procedure: As a target protein, a construct having a FLAG tag on the N-terminal side and a recognition sequence for biotin ligase BirA on the C-terminal side of the full-length sequence of human Regnase-1 (UniProt ID: Q5D1E8) was prepared (FL_Reg1). The above-mentioned Regnase-1 was expressed in mammalian Expi293 cells, purified with FLAG M2 agarose, and isolated by gel filtration chromatography. When biotinylation was required, methods from nonpatent documents (BMC biotechnology, 2008,8,41; and Protein Science, 1999,8,921-929) were used.
After mixing 2.5 nM of the above-mentioned Regnase-1 and the compound, 2.5 nM of IKKβ or TBK1 was added and reacted at room temperature for two hours. Then, Anti FLAG AlphaLISA Acceptor Beads (manufactured by PerkinElmer) and Glutathione-coated AlphaScreen Donor Beads (manufactured by PerkinElmer) were added, and excited luminescence was measured using En Vision (manufactured by PerkinElmer). As the results, the inhibition rate from the signals obtained when adding the compound at each concentration were calculated, by defining the signal obtained with Regnase-1 alone to be 100% inhibition rate, and the signal obtained when the same amount of solvent (DMSO) is added in place of the compound as 0% inhibition rate. The 50% inhibition concentration (μM) was calculated from the obtained dose response curve (Table 12).

[3] = Table 14, phosphorylation by IKKβ, read-out: Phosphorylation inhibition ΔCTD_Reg1, 50% inhibition concentration (IKKβ)
[4] = Table 13, binding between TBK1 and Regnase-1, read-out: Binding inhibition FL_Reg1, 50% inhibition concentration (TBK1)
[5] = Table 11, 2 nM Regnase-1, AlphaScreen, read-out: 50% inhibition concentration, Regnase-1 phosphorylation, ΔCTD_Reg1, IKKβ
[6] = Table 12, 2.5 nM Regnase-1, 2.5 nM TBK1, AlphaScreen, read-out: 50% inhibition concentration, binding between Regnase-1 and TBK1, FL_Reg1

Row | Compound | IC50 [1, 3] [µM] | IC50 [2, 4] [µM] | IC50 [1, 5] [µM] | IC50 [2, 6] [µM]
1 | CC[C@H](C)[C@@H]1NC(=O)[C@H](Cc2c[nH]c3ccccc23)NC(=O)[C@H](CCC(N)=O)NC(=O)[C@H](Cc2ccc(O)cc2)NC(=O)[C@H](C(C)C)NC(=O)[C@H](C)NC(=O)[C@H](Cc2ccc(O)cc2)NC(=O)[C@H](CCCNC(=N)N)NC(=O)[C@H](C)N(C)C(=O)C[C@@H](C(=O)N2CCCC2)NC(=O)[C@@H]2CCCN2C(=O)[C@H](Cc2ccc(O)cc2)NC1=O [PP12] (HELM PEPTIDE1{[meA].R.Y.A.V.Y.Q.W.I.Y.P.D.[C1CCN([*:1])C1]}$PEPTIDE1,PEPTIDE1,1:R1-12:R3$$$V2.0) | 27 | > 62.1 | – | –
2 | CC[C@H](C)[C@@H]1NC(=O)[C@H](CCCNC(=N)N)NC(=O)[C@H](Cc2ccc(O)cc2)NC(=O)[C@H](Cc2c[nH]c3ccccc23)NC(=O)[C@H](C)NC(=O)[C@H](CO)NC(=O)[C@H](C)NC(=O)[C@H](Cc2c[nH]cn2)NC(=O)[C@H](CCCCN)NC(=O)[C@@H](C)N(C)C(=O)C[C@@H](C(=O)N2CCCC2)NC(=O)[C@H](Cc2c[nH]c3ccccc23)NC1=O [PP3] (HELM PEPTIDE1{[C[C@H](C(=O)[*:2])N(C)[*:1]].K.H.A.S.A.W.Y.R.I.W.D.[C1CCN([*:1])C1]}$PEPTIDE1,PEPTIDE1,1:R1-12:R3$$$V2.0) | – | – | 8.3 | 3.1
3 | CC(C)[C@@H]1NC(=O)[C@H](CCCCN)NC(=O)[C@H](Cc2ccc(O)cc2)NC(=O)[C@H](Cc2c[nH]c3ccccc23)NC(=O)[C@H](CO)NC(=O)[C@H]([C@@H](C)O)NC(=O)[C@H](C)N(C)C(=O)C[C@@H](C(=O)N2CCCC2)NC(=O)[C@H](CCC(N)=O)NC(=O)CNC(=O)[C@H](Cc2c[nH]c3ccccc23)NC(=O)[C@H](CC(N)=O)NC1=O [PP1] (HELM PEPTIDE1{[meA].T.S.W.Y.K.V.N.W.G.Q.D.[C1CCN([*:1])C1]}$PEPTIDE1,PEPTIDE1,1:R1-12:R3$$$V2.0) | > 62.1 | > 62.1 | > 62.1 | > 62.1
4 | CC[C@H](C)[C@@H]1NC(=O)[C@H](CCCCN)NC(=O)[C@H](Cc2ccc(O)cc2)NC(=O)[C@H](Cc2ccccc2)NC(=O)[C@H](C(C)C)NC(=O)[C@H](C)N(C)C(=O)C[C@@H](C(=O)N2CCCC2)NC(=O)[C@H](Cc2c[nH]c3ccccc23)NC(=O)[C@H](CC(N)=O)NC(=O)[C@H](Cc2ccc(O)cc2)NC(=O)[C@H](Cc2c[nH]c3ccccc23)NC1=O [PP19] (HELM PEPTIDE1{[meA].V.F.Y.K.I.W.Y.N.W.D.[C1CCN([*:1])C1]}$PEPTIDE1,PEPTIDE1,1:R1-11:R3$$$V2.0) | – | 2.4 | – | –
5 | CC[C@H](C)[C@@H]1NC(=O)[C@H](CC(=O)O)NC(=O)[C@H](C)N(C)C(=O)C[C@@H](C(=O)N2CCCC2)NC(=O)[C@H](Cc2c[nH]c3ccccc23)NC(=O)[C@H](CC(=O)O)NC(=O)[C@H](Cc2c[nH]c3ccccc23)NC(=O)[C@H](Cc2ccc(O)cc2)NC(=O)[C@H](CC(=O)O)NC(=O)[C@H](Cc2ccccc2)NC(=O)[C@H](Cc2c[nH]c3ccccc23)NC1=O [PP17] (HELM PEPTIDE1{[meA].D.I.W.F.D.Y.W.D.W.D.[C1CCN([*:1])C1]}$PEPTIDE1,PEPTIDE1,1:R1-11:R3$$$V2.0) | 0.3 | < 0.06 | – | –
6 | CC[C@H](C)[C@@H]1NC(=O)[C@H](CCCCN)NC(=O)[C@H](Cc2ccc(O)cc2)NC(=O)[C@H](Cc2c[nH]c3ccccc23)NC(=O)[C@H](CO)NC(=O)[C@H](CC(N)=O)NC(=O)[C@H](C)N(C)C(=O)C[C@@H](C(=O)N2CCCC2)NC(=O)[C@H](CC(C)C)NC(=O)CNC(=O)[C@H](Cc2c[nH]c3ccccc23)NC1=O [PP21] (HELM PEPTIDE1{[meA].N.S.W.Y.K.I.W.G.L.D.[C1CCN([*:1])C1]}$PEPTIDE1,PEPTIDE1,1:R1-11:R3$$$V2.0) | – | 5.6 | – | –
7 | CC[C@H](C)[C@@H]1NC(=O)[C@H](CCCNC(=N)N)NC(=O)[C@H](Cc2ccc(O)cc2)NC(=O)[C@H](Cc2c[nH]c3ccccc23)NC(=O)[C@H](CO)NC(=O)[C@H](CC(N)=O)NC(=O)[C@H](C)N(C)C(=O)C[C@@H](C(=O)N2CCCC2)NC(=O)[C@H](CC(C)C)NC(=O)CNC(=O)[C@H](Cc2c[nH]c3ccccc23)NC1=O [PP22] (HELM PEPTIDE1{[meA].N.S.W.Y.R.I.W.G.L.D.[C1CCN([*:1])C1]}$PEPTIDE1,PEPTIDE1,1:R1-11:R3$$$V2.0) | – | 11.4 | – | –
8 | CC[C@H](C)[C@@H]1NC(=O)[C@H](CO)NC(=O)[C@H](CCCNC(=N)N)NC(=O)[C@H](Cc2ccc(O)cc2)NC(=O)[C@H](Cc2ccc(O)cc2)NC(=O)[C@H](Cc2c[nH]c3ccccc23)NC(=O)[C@H](CO)NC(=O)[C@H](CCC(N)=O)NC(=O)[C@H](Cc2ccc(O)cc2)NC(=O)[C@H](CC(N)=O)NC(=O)[C@H](C)N(C)C(=O)C[C@@H](C(=O)N2CCCC2)NC(=O)[C@H](Cc2c[nH]c3ccccc23)NC1=O [PP10] (HELM PEPTIDE1{[meA].N.Y.Q.S.W.Y.Y.R.S.I.W.D.[C1CCN([*:1])C1]}$PEPTIDE1,PEPTIDE1,1:R1-13:R3$$$V2.0) | – | 9.8 | – | –
9 | CC[C@H](C)[C@@H]1NC(=O)[C@H](CC(N)=O)NC(=O)[C@H](Cc2ccc(O)cc2)NC(=O)[C@H](Cc2c[nH]c3ccccc23)NC(=O)[C@H](CO)NC(=O)[C@H](CC(N)=O)NC(=O)[C@H](CO)NC(=O)[C@H](Cc2ccccc2)NC(=O)[C@H](CC(N)=O)NC(=O)[C@H](C)N(C)C(=O)C[C@@H](C(=O)N2CCCC2)NC(=O)[C@H](Cc2c[nH]c3ccccc23)NC1=O [PP16] (HELM PEPTIDE1{[meA].N.F.S.N.S.W.Y.N.I.W.D.[C1CCN([*:1])C1]}$PEPTIDE1,PEPTIDE1,1:R1-12:R3$$$V2.0) | – | 20.2 | – | –
